Laboratory results published in patent US8637504B2, “Sulfur-containing heterocyclic derivative having beta secretase inhibitory activity” (Shionogi & Co., Ltd., priority 2008, dated 2014).
Like-named read-outs stand apart in the source and are kept apart here.

Key:
[1] = Metabolism stability test; format: in vitro ADME; details: human liver microsomes 0.5 mg protein/mL, NADPH, 37° C., 30 minutes
Protocol: Using a commercially available pooled human hepatic microsomes, a test compound was reacted for a constant time, a remaining rate was calculated by comparing a reacted sample and an unreacted sample, thereby, a degree of metabolism in liver was assessed.
A reaction was performed (oxidative reaction) at 37° C. for 0 minute or 30 minutes in the presence of 1 mmol/L NADPH in 0.2 mL of a buffer (50 mmol/L Tris-HCl pH 7.4, 150 mmol/L potassium chloride, 10 mmol/L magnesium chloride) containing 0.5 mg protein/mL of human liver microsomes. After the reaction, 50 μl, of the reaction solution was added to 100 μL of a methanol/acetonitrile=1/1 (v/v), mixed and centrifuged at 3000 rpm for 15 minutes. The test compound in the supernatant was quantified by LC/MS/MS, and a remaining amount of the test compound after the reaction was calculated, letting a compound amount at 0 minute reaction time to be 100%.

CYP1A2 = CYP1A2 (Homo sapiens (Human), UniProt P05177); assay: CYP inhibition test (CYP1A2); format: in vitro ADME; details: pooled human hepatic microsome, 7-ethoxyresorufin O-deethylation
Protocol: (§1) After the centrifugation at 3000 rpm for 15 minutes, resorufin (CYP1A2 metabolite) in the supernatant was quantified by a fluorescent multilabel counter and tributamide hydroxide (CYP2CP metabolite), mephenyloin 4′ hydroxide (CYP2C19 metabolite), […] (CYP2D6 metabolite), and terfenadine alcohol (CYP3A4 metabolite) were quantified by LC/MS/MS. Addition of only DMSO being a solvent dissolving a drug to a reaction system was adopted as a control (100%), remaining activity (%) was calculated at each concentration of a test drug added as the solution and […] was calculated by reverse presumption by a logistic model using a concentration and an inhibition rate.

CYP2C9 = CYP2C9 (Homo sapiens (Human), UniProt P11712); assay: CYP inhibition test (CYP2C9); format: in vitro ADME; details: pooled human hepatic microsome, tolbutamide methyl-hydroxylation
Protocol: as §1

CYP2C19 = CYP2C19 (Homo sapiens (Human), UniProt P33261); assay: CYP inhibition test (CYP2C19); format: in vitro ADME; details: pooled human hepatic microsome, mephenyloin 4′-hydroxylation
Protocol: as §1

CYP2D6 = CYP2D6 (Homo sapiens (Human), UniProt P10635); assay: CYP inhibition test (CYP2D6); format: in vitro ADME; details: pooled human hepatic microsome, dextromethorphan O-demethylation
Protocol: as §1

CYP3A4 [2] = biological target: T1, CYP3A4 (Homo sapiens (Human), UniProt P08684); assay: CYP inhibition test (CYP3A4); format: in vitro ADME; details: pooled human hepatic microsome, terfenedine hydroxylation
Protocol: as §1

Recombinant human BACE-1 = Recombinant human BACE-1 (Homo sapiens (Human), UniProt P56817); assay: Assay of β-secretase-inhibiting activity
CYP3A4 [3] = biological target: T1, CYP3A4; assay: CYP3A4 fluorescent MBI test; format: in vitro ADME; details: pre-reaction time 0 or 30 minutes, substrate 7-BFC
Protocol: The CYP3A4 fluorescent MBI test is a test of investigating enhancement of CYP3A4 inhibition of a compound by a metabolism reaction, and the test was performed using, as CYP3A4 enzyme expressed in Escherichia coli and employing, as an index, a reaction in which 7-benzyloxytrifluoromethylchmarin (7-BFC) is debenzylated by the CYP3A4 enzyme to produce a metabolite, 7-hydroxytrifluoromethylchmarin (HFC) emitting fluorescent light.
The reaction conditions were as follows: substrate, 5.6 μmol/L 7-BFC; pre-reaction time, 0 or 30 minutes; reaction time, 15 minutes; reaction temperature, 25° C. […]
An enzyme in a K-Pi buffer (pH 7.4) and a test drug solution as a pre-reaction solution were added to a 96-well plate at the composition of the pre-reaction, a part of it was transferred to another 96-well plate so that it was 1/10 diluted by a substrate in a K-Pi buffer, NADPH as a co-factor was added to initiate a reaction as an index (without preincubation) and, after a predetermined time of a reaction, acetonitrile/0.5 mol/L Tris (trishydroxyaminomethane)=4/1 was added to stop the reaction. […] For the plate on which each index reaction had been performed, a fluorescent value of 7-HFC which is a metabolite was measured with a fluorescent plate reader. […]

Solubility test = format: physicochemical; details: pH 1.2, simulated gastric fluid, kinetic from dmso stock; JP-I medium, turbidity after 4 hours
Protocol: A 2-fold dilution series (12 points) of a 10 mM solution of a test compound in DMSO was added to a medium (JP-I, JP-II) (2%), and solubility was assessed by 3 stages (High; >40 Medium; 3-40 μM, Low; <3 μM) from a turbidity after 4 hours (crystallization information).

[4] = biological target: human ether-a-go-go related gene (hERG) channel (Homo sapiens (Human), UniProt Q12809); assay: hERG test; format: cell-based; details: HEK293 cells expressing hERG, patch clamp, applied 10 minutes
Source text: For the purpose of assessing risk of an electrocardiogram QT interval prolongation, effects on delayed rectifier K+ current (IKr), which plays an important role in the ventricular repolarization process, was studied using HEK293 cells expressing human ether-a-go-go related gene (hERG) channel.
After a cell was retained at a membrane potential of −80 mV by whole cell patch clamp method using an automated patch clamp system (PatchXpress 7000A, Axon Instruments Inc.), IKr induced by depolarization pulse stimulation at +50 mV for 2 seconds and, further, repolarization pulse stimulation at −50 mV for 2 seconds was recorded. […] From the recording IKr, an absolute value of the tail peak current was measured based on the current value at the resting membrane potential using an analysis software (DataXpress ver.1, Molecular Devices Corporation). Further, the % inhibition relative to the tail peak current before application of the test substance was calculated, and compared with the vehicle-applied group (0.1% dimethyl sulfoxide solution) to assess influence of the test substance on IKr.

[5] = Recombinant human BACE-1 7.4 nM, substrate peptide 18 nM, pH 5.0, 30° C. 3 hours

CYP2D6, sequence (P10635 whole entry): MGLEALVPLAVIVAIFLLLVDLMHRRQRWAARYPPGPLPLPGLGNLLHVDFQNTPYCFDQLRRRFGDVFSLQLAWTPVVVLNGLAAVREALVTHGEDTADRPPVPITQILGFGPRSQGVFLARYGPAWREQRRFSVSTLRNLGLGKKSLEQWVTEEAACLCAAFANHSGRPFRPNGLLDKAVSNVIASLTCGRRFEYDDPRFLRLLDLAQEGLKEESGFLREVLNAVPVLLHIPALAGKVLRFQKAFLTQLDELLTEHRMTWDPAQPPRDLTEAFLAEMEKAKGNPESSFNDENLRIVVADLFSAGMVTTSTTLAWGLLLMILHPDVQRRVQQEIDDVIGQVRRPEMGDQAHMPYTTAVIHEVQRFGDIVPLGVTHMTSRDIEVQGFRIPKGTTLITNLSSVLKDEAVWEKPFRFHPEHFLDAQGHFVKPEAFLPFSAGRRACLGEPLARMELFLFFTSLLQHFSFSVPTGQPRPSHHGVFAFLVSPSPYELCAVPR
CYP2C19, sequence (P33261 whole entry): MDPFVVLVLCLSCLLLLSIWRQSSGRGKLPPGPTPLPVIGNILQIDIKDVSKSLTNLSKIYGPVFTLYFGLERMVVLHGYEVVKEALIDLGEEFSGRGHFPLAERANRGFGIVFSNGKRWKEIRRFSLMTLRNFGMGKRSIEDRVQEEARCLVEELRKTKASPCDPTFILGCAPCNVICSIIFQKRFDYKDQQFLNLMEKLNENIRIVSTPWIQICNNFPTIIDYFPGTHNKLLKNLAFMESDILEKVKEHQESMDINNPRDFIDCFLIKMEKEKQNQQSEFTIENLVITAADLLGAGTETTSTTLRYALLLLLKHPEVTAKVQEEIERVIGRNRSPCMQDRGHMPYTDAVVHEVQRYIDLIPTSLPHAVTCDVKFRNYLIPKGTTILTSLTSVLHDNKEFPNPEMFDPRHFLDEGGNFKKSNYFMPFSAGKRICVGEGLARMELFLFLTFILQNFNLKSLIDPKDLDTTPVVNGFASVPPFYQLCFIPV
T1 sequence (P08684 whole entry): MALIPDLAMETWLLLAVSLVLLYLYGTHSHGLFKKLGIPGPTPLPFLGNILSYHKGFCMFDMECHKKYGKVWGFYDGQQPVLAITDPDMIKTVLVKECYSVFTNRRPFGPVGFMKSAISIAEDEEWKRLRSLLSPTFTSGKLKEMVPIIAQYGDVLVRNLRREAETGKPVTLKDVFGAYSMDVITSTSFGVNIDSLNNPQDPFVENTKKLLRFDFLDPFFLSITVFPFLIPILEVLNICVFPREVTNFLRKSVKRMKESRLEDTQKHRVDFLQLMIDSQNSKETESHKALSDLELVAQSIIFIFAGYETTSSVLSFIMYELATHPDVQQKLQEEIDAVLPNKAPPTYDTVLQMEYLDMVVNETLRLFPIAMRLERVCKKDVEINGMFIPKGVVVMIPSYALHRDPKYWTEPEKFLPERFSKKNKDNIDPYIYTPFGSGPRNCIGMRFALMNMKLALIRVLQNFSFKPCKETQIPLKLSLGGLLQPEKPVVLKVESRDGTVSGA
CYP2C9, sequence (P11712 whole entry): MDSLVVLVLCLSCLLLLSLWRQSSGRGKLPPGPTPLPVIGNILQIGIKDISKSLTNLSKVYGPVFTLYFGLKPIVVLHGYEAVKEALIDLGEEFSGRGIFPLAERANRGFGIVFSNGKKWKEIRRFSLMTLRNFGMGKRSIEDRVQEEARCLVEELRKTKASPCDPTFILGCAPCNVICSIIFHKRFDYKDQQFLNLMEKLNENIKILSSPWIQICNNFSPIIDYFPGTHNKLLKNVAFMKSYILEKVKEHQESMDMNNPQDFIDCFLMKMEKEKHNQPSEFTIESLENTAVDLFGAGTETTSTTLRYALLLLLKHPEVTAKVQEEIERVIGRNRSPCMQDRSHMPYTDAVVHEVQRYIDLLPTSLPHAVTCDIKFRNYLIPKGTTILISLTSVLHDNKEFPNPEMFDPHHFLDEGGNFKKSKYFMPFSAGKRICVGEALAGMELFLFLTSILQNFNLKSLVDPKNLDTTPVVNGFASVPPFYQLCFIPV
CYP1A2, sequence (P05177 whole entry): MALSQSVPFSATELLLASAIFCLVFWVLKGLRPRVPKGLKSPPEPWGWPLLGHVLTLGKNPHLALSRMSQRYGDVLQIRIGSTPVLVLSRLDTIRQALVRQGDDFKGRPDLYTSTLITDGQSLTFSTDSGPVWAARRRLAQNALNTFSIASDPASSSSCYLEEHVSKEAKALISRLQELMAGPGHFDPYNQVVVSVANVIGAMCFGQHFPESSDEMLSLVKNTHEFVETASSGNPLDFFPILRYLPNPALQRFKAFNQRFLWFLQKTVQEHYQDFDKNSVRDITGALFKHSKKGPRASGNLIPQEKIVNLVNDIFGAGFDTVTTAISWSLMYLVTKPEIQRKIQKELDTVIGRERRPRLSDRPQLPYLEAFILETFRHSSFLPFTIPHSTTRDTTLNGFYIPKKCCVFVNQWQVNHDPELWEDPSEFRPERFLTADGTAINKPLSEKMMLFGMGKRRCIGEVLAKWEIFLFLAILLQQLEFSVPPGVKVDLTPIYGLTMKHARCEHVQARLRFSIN
Recombinant human BACE-1, sequence (P56817 46-501): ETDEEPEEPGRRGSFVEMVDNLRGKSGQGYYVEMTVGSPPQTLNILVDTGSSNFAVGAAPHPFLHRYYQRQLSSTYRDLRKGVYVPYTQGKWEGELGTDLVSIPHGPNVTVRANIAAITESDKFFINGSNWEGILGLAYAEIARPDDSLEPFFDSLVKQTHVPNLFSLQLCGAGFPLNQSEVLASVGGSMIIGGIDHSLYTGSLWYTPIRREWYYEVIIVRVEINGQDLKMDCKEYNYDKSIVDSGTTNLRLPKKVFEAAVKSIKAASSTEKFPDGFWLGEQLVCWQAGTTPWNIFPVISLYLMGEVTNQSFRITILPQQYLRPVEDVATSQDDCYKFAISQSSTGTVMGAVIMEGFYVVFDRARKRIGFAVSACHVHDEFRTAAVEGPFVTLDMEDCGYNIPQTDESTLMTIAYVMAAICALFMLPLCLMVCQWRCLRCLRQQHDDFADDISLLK
human ether-a-go-go related gene (hERG) channel, sequence (Q12809 whole entry): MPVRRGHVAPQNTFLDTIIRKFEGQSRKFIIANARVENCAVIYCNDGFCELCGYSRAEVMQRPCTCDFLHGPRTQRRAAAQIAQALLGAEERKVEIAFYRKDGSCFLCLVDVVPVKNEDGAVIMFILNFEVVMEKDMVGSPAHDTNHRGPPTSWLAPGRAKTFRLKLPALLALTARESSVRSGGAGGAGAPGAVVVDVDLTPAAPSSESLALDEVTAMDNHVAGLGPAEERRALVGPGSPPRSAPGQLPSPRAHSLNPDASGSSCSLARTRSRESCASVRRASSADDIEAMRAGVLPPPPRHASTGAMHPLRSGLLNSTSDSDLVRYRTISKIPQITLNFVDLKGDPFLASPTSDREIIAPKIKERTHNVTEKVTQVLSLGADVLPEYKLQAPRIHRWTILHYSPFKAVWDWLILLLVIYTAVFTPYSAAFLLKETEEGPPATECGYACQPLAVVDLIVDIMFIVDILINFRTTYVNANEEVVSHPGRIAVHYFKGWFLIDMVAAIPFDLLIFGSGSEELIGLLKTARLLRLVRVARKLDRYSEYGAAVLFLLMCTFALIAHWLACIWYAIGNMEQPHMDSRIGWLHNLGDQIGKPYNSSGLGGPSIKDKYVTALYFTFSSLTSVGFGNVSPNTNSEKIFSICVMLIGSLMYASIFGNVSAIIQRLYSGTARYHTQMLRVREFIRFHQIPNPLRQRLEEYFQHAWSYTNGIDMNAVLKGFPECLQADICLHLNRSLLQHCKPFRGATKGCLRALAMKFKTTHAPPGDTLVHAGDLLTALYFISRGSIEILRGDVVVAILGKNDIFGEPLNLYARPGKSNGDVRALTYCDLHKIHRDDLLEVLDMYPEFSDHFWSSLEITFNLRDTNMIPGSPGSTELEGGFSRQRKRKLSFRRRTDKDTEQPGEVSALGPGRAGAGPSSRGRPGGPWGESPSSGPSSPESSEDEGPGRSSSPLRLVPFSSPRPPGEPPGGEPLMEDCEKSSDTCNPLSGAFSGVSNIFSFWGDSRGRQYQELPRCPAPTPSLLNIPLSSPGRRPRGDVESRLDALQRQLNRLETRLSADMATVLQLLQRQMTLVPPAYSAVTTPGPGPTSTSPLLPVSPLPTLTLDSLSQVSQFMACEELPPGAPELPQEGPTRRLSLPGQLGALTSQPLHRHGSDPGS

| remaining amount of the test compound after the reaction [1] [%] | IC50 (CYP1A2) [µM] | IC50 (CYP2C9) [µM] | IC50 (CYP2C19) [µM] | IC50 (CYP2D6) [µM] | IC50 (CYP3A4 [2]) [µM] | IC50 (Recombinant human BACE-1; [5]) [µM] | Compound | other results |
| --- | --- | --- | --- | --- | --- | --- | --- | --- |
| – | > 20 | > 20 | > 20 | > 20 | > 20 | 0.063 | C=C1C[C@@](C)(c2cncc(NC(=O)c3cnc(OC)cn3)c2)N=C(N)S1 [Compound 104] | – |
| – | > 20 | > 20 | > 20 | > 20 | > 20 | – | CC(C)(C)S(=O)(=O)Nc1cnc(C(=O)Nc2ccc(F)c([C@]3(C)C=CSC(N)=N3)c2)cn1 [Compound 68] | – |
| – | > 20 | > 20 | > 20 | > 20 | > 20 | 0.435 | C[C@@]1(c2cc(NC(=O)c3cc4n(n3)CCN4)ccc2F)C=CSC(N)=N1 [Compound 63] | – |
| 94 | – | – | – | – | – | 0.036 | C[C@@]1(c2cc(NC(=O)c3cnc(-n4cncn4)cn3)ccc2F)C=CSC(N)=N1 [Compound 70] | solubility at 4 h (Solubility test): > 40 µM |
| – | – | – | – | – | – | 0.036 | C=C1C[C@@](C)(c2cc(NC(=O)c3cnc(OC)cn3)cnc2C)N=C(N)S1 [Compound 102] | % inhibition of tail peak current (IKr) [4]: 2.3% |
| – | – | – | – | – | – | 0.014 | C=C1C[C@@](C)(c2cc(NC(=O)c3cnc(OC)cn3)cnc2Cl)N=C(N)S1 [Compound 99] | IC50 difference (with/without preincubation) (CYP3A4 [3]): < 3 µM |
| 95 | – | – | – | – | – | 0.304 | C[C@@]1(c2cc(NC(=O)c3cnc(-c4ncco4)cn3)ccc2F)C=CSC(N)=N1 [Compound 38] | – |

More lines, now with the values behind:

| Compound | remaining amount of the test compound after the reaction [1] [%] | IC50 (CYP1A2) [µM] | IC50 (CYP2C9) [µM] | IC50 (CYP2C19) [µM] | IC50 (CYP2D6) [µM] | IC50 (CYP3A4 [2]) [µM] | IC50 (Recombinant human BACE-1; [5]) [µM] | other results |
| --- | --- | --- | --- | --- | --- | --- | --- | --- |
| C[C@@]1(c2cccc(-c3cncc(C#N)c3)c2)CCSC(N)=N1 [Compound 212] | 95 | – | – | – | – | – | – | – |
| C=C1C[C@@](C)(c2cncc(NC(=O)c3ncc(C(F)(F)F)cc3Cl)c2)N=C(N)S1 [Compound 106] | – | > 20 | > 20 | > 20 | > 20 | > 20 | 0.102 | – |
| CC1=C[C@@](C)(c2cncc(NC(=O)c3ccc(C#N)cn3)c2)N=C(N)S1 [Compound 108] | – | – | – | – | – | – | – | IC50 difference (with/without preincubation) (CYP3A4 [3]): < 3 µM; IC50 (Recombinant human BACE-1): ≤ 1 µM |
| C[C@@]1(c2cccc(-c3ccc(F)nc3F)c2)CCSC(N)=N1 [Compound 213] | 98 | – | – | – | – | – | – | – |
| Cc1cc(C(=O)Nc2ccc(F)c([C@]3(C)C=CSC(N)=N3)c2)n(C)n1 [Compound 35] | – | > 20 | > 20 | > 20 | > 20 | > 20 | 0.096 | – |
| CNC(=O)c1ccc(-c2ccc(F)c([C@]3(C)C=CSC(N)=N3)c2)cn1 [Compound 92] | – | – | – | – | – | – | – | % inhibition of tail peak current (IKr) [4]: 7.9% |
